The record followed here is US7285703B2, “Plant like starches and the method of making them in hosts” (BASF Plant Science GmbH, priority 1998, dated 2007).

The target of assay [1] is maize starch synthase SSIIa-1, putative full length SSIIa (669 amino acids), N-terminus AEAEAGGK (SEQ ID NO:68) (Zea mays, UniProt A0A804PX87). Put plainly: ADPGlc kinetics of starch synthase SSIIa-1. The conditions noted are these: for Vmax (ADPGlc kinetics): amylopectin as primer, 27° C. In kind it is biochemical. The text has this:
(§1) FIG. 59. SSIIa-1 and SSIIa-2 construct diagram. Two forms of SSIIa were constructed in the pET expression system. pExs3c encodes SSIIa-1, the putative full length maize SSIIa which has the N-terminal sequence AEAEAGGK (SEQ ID NO:68). […] A depiction of the waxy gene, encoding GBSS which has the N-terminal sequence ASAGMNVV (SEQ ID NO:67), is also included for comparison. The amino acid motif KTGGL (SEQ ID NO:10), the putative binding site for ADPGlc, is indicated by the triangles. The KTGGL (SEQ ID NO:10) motif is located 18 amino acids from the N-terminus in GBSS, while the motif is 194 amino acids from the N-terminus in maize SSIIa.
(§2) 5 mL of supernatant were used to assay STS and SBE activities as previously described (Preiss) with minor modification. […] […] The unincorporated [^14C]-ADPGlc was separated with Dowex anion exchange column (200-400 mesh, Sigma Chemical Co.). One unit of activity is defined as 1 nmol Glc incorporated into the a-glucan per min at 25° C. SBE activity was determined by phosphorylase stimulation assay. One unit of activity is defined as 1 mmol Glc incorporated into the a-glucan per min at. 30° C.
For the recombinant SS purification, the cell pellet was resuspended in sonication buffer (50 mM Tris-acetate, pH 7.5, 10 mM EDTA, and 5 mMDTT; 7 ml buffer per gram of cell mass), and cells were lysed using a Fisher 550 Sonic Dismembrator with 5×1 min. bursts with 30 sec. intervals. The homogenate was centrifuged at 9600 g for 30 minutes. SSI in the supernatant was then precipitated by slowly adding neutralized saturated ammonium sulfate to 40% saturation. After stirring on ice for an additional 50 minutes, proteins were collected by centrifugation at 12500 g for 45 minutes. The protein pellet was then redissolved in buffer A (50 mM Tris, pH 5.5, 1 mM EDTA, and 5 mM DTT) containing 0.1 M KCl and dialyzed against the same buffer, with one change of buffer. After dialysis, the sample was centrifuged at 13000 g for 20 minutes to remove insoluble materials. […]

Assay [2] addresses maize starch synthase SSIIa-2, N-terminally truncated SSIIa, first 176 amino acids deleted (493 amino acids), N-terminus GENVMNVI (SEQ ID NO:1) (Zea mays, UniProt A0A804PX87). Put plainly: ADPGlc kinetics of starch synthase SSIIa-2. In kind it is biochemical. The conditions noted are these: for Vmax (ADPGlc kinetics): amylopectin as primer.
From the text: as §1, §2
For the recombinant SS purification, the cell pellet was resuspended in sonication buffer (50 mM Tris-acetate, pH 7.5, 10 mM EDTA, and 5 mMDTT; 7 ml buffer per gram of cell mass), and cells were lysed using a Fisher 550 Sonic Dismembrator with 5×1 min. bursts with 30 sec. intervals. The homogenate was centrifuged at 9600 g for 30 minutes. SSI in the supernatant was then precipitated by slowly adding neutralized saturated ammonium sulfate to 40% saturation. After stirring on ice for an additional 50 minutes, proteins were collected by centrifugation at 12500 g for 45 minutes. The protein pellet was then redissolved in buffer A (50 mM Tris, pH 5.5, 1 mM EDTA, and 5 mM DTT) containing 0.1 M KCl and dialyzed against the same buffer, with one change of buffer. After dialysis, the sample was centrifuged at 13000 g for 20 minutes to remove insoluble materials. The resulting supernatant was loaded onto […] pre-equilibrated with dialysis buffer, and the flow through was collected. The column was washed with 10 column volumes of buffer a containing 0.1 M KCl, and then with buffer A containing 0.5 M KCl and 0.5 M maltose, collecting fractions during both washes. The active fractions were pooled and dialyzed overnight against buffer A, with one change of buffer. The next day, the amylase column sample was filtered and applied to a mono Q 5/5 FPLC column (Pharmacia). After washing with buffer A, a 20 ml 0-0,4 M KCl gradient was employed. The active fractions were electrophoresed on an 8% SDS-PAGE gel (31) to determine the purity of SSI in those fractions; the fractions which were apparently homogeneous were pooled and concentrated using a Centricon-30 spin column (Amicon).

Assay [3] addresses T1, maize starch synthase SSI-2 (STSI-2), N-terminally truncated SSI, amino acids 8-52 of SSI-1 deleted, N-terminus CVAELSR/DLG (SEQ ID NO:65) (Zea mays, UniProt O49064, DEL47-91).
T1 sequence (O49064 with tags, fused parts or gaps DEL47-91): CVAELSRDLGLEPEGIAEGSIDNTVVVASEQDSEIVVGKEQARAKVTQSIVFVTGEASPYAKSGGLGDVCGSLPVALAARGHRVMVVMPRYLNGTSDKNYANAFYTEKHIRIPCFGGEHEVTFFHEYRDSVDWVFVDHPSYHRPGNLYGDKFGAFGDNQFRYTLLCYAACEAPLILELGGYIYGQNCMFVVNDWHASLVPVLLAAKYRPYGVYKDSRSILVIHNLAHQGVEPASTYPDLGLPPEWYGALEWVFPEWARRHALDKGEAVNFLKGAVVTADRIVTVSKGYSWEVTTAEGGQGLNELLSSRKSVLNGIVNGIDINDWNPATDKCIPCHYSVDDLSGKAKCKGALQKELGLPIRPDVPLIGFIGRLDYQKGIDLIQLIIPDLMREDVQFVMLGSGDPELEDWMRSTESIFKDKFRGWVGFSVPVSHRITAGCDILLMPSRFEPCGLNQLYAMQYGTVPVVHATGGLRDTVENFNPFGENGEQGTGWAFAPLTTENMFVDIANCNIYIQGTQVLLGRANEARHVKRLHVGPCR
Description: ADPGlc kinetics of starch synthase SSI-2. The conditions noted are these: 5 mg/ml amylopectin as primer, 37° C.
Description: (SEQ ID NO:64). pExs8 encodes a truncated SSI, SSI-2, with amino acids # 8-52 deleted from the N-terminus of SSI-1 and which has the N-terminal sequence CVAELSR/DLG (SEQ ID NO:65). pExs1d encodes the most truncated form of SSI, SSI-3, with the first 93 amino acids deleted from SSI-1 and which has the N-terminal sequence [sequence]
5 mL of supernatant were used to assay STS and SBE activities as previously described (Preiss) with minor modification. The reaction mixture for STS contained 100 mM Bicine buffer, 10 mg/mL glycogen, 0.5 mg/mL BSA, 0.5 M sodium citrate, 25 mM potassium acetate, 10 mM GSH, 3 mM [^14C]-ADPGlc (500 dpm/nmol) and enzyme in a final volume of 0.1 mL. The reaction was carried out at 25° C. for 15 min and terminated by boiling for 2 min. The unincorporated [^14C]-ADPGlc was separated with Dowex anion exchange column (200-400 mesh, Sigma Chemical Co.). One unit of activity is defined as 1 nmol Glc incorporated into the a-glucan per min at 25° C.
For the recombinant SS purification, the cell pellet was resuspended in sonication buffer (50 mM Tris-acetate, pH 7.5, 10 mM EDTA, and 5 mMDTT; 7 ml buffer per gram of cell mass), and cells were lysed using a Fisher 550 Sonic Dismembrator with 5×1 min. bursts with 30 sec. intervals. The homogenate was centrifuged at 9600 g for 30 minutes. SSI in the supernatant was then precipitated by slowly adding neutralized saturated ammonium sulfate to 40% saturation. After stirring on ice for an additional 50 minutes, proteins were collected by centrifugation at 12500 g for 45 minutes. The protein pellet was then redissolved in buffer A (50 mM Tris, pH 5.5, 1 mM EDTA, and 5 mM DTT) containing 0.1 M KCl and dialyzed against the same buffer, with one change of buffer. After dialysis, the sample was centrifuged at 13000 g for 20 minutes to remove insoluble materials. The resulting supernatant was loaded onto amylase affinity column pre-equilibrated with dialysis buffer, and the flow through was collected. […]

Chain of maize starch synthase SSIIa-2, N-terminally truncated SSIIa, first 176 amino acids deleted (493 amino acids), N-terminus GENVMNVI (SEQ ID NO:1) (A0A804PX87 entry or part of it, stated change not applied): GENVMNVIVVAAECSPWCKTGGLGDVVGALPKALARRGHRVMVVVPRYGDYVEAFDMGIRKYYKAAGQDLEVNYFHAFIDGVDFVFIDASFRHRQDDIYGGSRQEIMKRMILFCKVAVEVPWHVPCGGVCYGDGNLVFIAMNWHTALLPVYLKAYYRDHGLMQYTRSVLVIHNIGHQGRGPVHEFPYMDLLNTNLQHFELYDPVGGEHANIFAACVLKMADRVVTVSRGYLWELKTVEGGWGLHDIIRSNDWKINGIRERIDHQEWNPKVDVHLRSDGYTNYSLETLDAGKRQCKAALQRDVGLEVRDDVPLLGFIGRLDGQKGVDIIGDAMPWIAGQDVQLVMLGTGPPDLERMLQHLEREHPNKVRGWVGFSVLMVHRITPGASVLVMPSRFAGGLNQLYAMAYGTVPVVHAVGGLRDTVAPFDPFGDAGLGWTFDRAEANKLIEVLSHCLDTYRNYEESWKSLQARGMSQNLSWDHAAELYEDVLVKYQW
Chain of maize starch synthase SSIIa-1, putative full length SSIIa (669 amino acids), N-terminus AEAEAGGK (SEQ ID NO:68) (A0A804PX87 entry or part of it): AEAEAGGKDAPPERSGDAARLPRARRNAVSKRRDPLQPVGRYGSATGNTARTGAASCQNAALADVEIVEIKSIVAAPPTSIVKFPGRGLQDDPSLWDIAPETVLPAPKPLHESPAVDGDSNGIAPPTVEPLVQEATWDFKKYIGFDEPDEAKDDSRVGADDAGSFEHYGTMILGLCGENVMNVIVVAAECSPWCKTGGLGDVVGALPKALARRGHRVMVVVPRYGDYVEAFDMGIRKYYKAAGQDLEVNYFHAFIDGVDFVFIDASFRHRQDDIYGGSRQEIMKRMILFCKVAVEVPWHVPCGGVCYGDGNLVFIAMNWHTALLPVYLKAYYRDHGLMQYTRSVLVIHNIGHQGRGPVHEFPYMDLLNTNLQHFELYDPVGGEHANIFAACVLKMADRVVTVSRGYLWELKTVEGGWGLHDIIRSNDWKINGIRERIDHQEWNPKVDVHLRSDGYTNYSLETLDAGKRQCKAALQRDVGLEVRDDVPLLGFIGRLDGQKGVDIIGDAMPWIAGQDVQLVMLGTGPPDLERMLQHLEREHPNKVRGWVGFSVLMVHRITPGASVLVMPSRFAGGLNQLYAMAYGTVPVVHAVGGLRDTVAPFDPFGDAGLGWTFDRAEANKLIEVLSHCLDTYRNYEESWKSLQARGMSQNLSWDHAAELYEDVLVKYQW

In the case of `Nc1ncnc2c1ncn2[C@@H]1O[C@H](COP(=O)(O)OP(=O)(O)O[C@H]2O[C@H](CO)[C@@H](O)[C@H](O)[C@H]2O)[C@@H](O)[C@H]1O` [ADPGlc, adenosine diphosphate glucose], the “Vmax (ADPGlc kinetics)” value in assay [1] (+citrate) worked out at 23.0 ± 2.5 μmol/min/mg protein; in assay [1] (−citrate) it was 12.1 ± 0.8 μmol/min/mg protein; in assay [2] (+citrate, 27° C.), 4.83 ± 0.42 μmol/min/mg protein; in assay [2] (+citrate, 37° C.), 11.4 ± 0.6 μmol/min/mg protein; in assay [2] (−citrate, 27° C.), 4.87 ± 0.25 μmol/min/mg protein; in assay [2] (−citrate, 37° C.), 7.86 ± 0.53 μmol/min/mg protein. Further, the “increase of Km of ADPGlc upon raising the assay temperature” value in assay [1] (from 27° C. to 37° C.) stood at 2 fold. Further, the “Km for ADPGlc compared with SSIIa-1” value in assay [2] (all assay conditions used except glycogen primer at 27° C.) was “lower Km for ADPGlc”. In addition, the “effect of raising temperature on Km for ADPGlc” value in assay [2] (from 27° C. to 37° C.) is “not affected by raising temperature”. The “Vm (ADPGlc kinetics)” value in assay [3] (+citrate) came out at 32.6 ± 0.8 μmol/min/mg protein; in assay [3] (−citrate), 11.7 ± 0.7 μmol/min/mg protein.
